Values after ≈ are worked out from the molar mass of the structure shown.
Assays:
[1] = ABTS radical scavenging assay; type: biochemical; settings: mean ± SD (n = 3)
[2] = Ferric reducing/antioxidant power (FRAP) assay; type: biochemical; settings: mean ± SD (n = 3)
Procedure: The antioxidant activity of the isolated compounds was determined using ABTS and FRAP assays in triplicate, and the average values were considered.
Herein, antioxidant potential was measured based on the samples’ ability to reduce ferric to ferrous ion. This method relies on the reduction of ferricyanide relative to the sample. Samples (1 mL) were mixed with 2.5 mL of each of sodium phosphate buffer and K3Fe (CN)6, and then the reaction mixture was incubated (50 °C, 20 min). Afterward, 2.5 mL of trichloroacetic acid was added, and centrifugation (1000× g, 10 min) was carried out. Some 2.5 mL of the supernatant solution and an equal amount of deionized H2O and 0.5 mL of ferric chloride were then mixed, and the absorbance was recorded at 700 nm.

SMILES	IC50 Value ABTS Assay [1] [mg/L]	IC50 Value FRAP Assay [2] [mg/L]
Oc1cc(O)cc(O)c1 [Compound 1, phloroglucinol]	6.44 ± 0.47 (≈ 51.1 µM)	12.89 ± 0.93 (≈ 102 µM)
O=C1O[C@H]([C@@H](O)CO)C(O)=C1O [Ascorbic acid, reference compound]	10.67 ± 0.85 (≈ 60.6 µM)	20.86 ± 1.28 (≈ 118 µM)
COc1cc(-c2oc3cc(O)cc(O)c3c(=O)c2OC2OC(COC3OC(C)C(O)C(O)C3O)C(O)C(O)C2O)ccc1O (stereo not shown) [Compound 3, isorhamnetin 3-O-rutinoside]	12.24 ± 0.61 (≈ 19.6 µM)	25.24 ± 2.03 (≈ 40.4 µM)
OC[C@H]1O[C@@H](Oc2cc(O)cc(O)c2)[C@H](O)[C@@H](O)[C@@H]1O [Compound 2, 3,5-dihydroxyphenyl β-D-glucopyranoside]	43.40 ± 3.18 (≈ 151 µM)	64.52 ± 4.15 (≈ 224 µM)
COc1cc(-c2oc3cc(O)cc(O)c3c(=O)c2OC2OC(COC3OC(C)C(OC4OC(C)C(O)C(O)C4O)C(O)C3O)C(O)C(O)C2O)ccc1O (stereo not drawn) [Compound 5, Isorhamnetin 3-O-[α-rhamnopyranosyl-(1→4)-α-rhamnopyranosyl-(1→6)-β-glucopyranoside]]	18.19 ± 2.94 (≈ 23.6 µM)	35.04 ± 2.89 (≈ 45.5 µM)

Reference: article PMC10574154, “Antioxidant and Anti-Aging Phytoconstituents from Faucaria tuberculosa: In Vitro and In Silico Studies” (Molecules, 2023)
